Test results as given in patent US9840498B2, “Substituted quinazolin-4-one derivatives” (NOVARTIS AG, priority 2013, dated 2017).
pIC50: −log10 of the molar value.

Key:
[1] = target: human phosphoinositide-3 kinase (PI3K) delta (Homo sapiens (Human), UniProt O00329); test: PI3K-mediated Akt 1/2 (S473) phosphorylation in Rat-1 cells overexpressing PI3K delta; format: cell-based; details: cellular assay, p-AKT(Ser473), read-out: Cell PI3K delta IC50
Method: (§1) 2.1 Phosphoinositide-3 kinase (PI3K)-Mediated Akt 1/2 (S473) Phosphorylation in Rat-1 Cells
(§2) Rat-1 cells stably overexpressing a myristoylated form of the catalytic subunit of human phosphoinositide-3 kinase (PI3K) alpha, beta or delta were plated in 384-well plates at a density of 7500 (PI3K alpha), 6200 (PI3K beta), or 4000 (PI3K delta) cells in 30 ul complete growth medium (Dulbecco's modified Eagle's medium (DMEM high glucose) supplemented with 10% (v/v) fetal bovine serum, 1% (v/v) MEM non essential amino acids, 10 mM HEPES, 2 mM L-glutamine, 10 μg/mL puromycin and 1% (v/v) Penicillin/Streptomycin) and were incubated at […]/5% CO2/95% humidity for 24 h. Compounds were diluted in 384-well compound plates (compound master plates), to obtain 8-point serial dilutions for 40 test compounds in 90% DMSO, as well as 4 reference compounds plus 16 high controls and 16 low (inhibited) controls. Predilution plates were prepared by dispensing pipetting 250 nl of compound solutions into 384-well polypropylen plates (daugther plates), using a Hummingwell nanoliter dispenser. Compounds were prediluted by the addition of 49.75 ul complete growth medium. 10 ul of prediluted compound solution were transferred to the cell plate using a 384-well pipettor, resulting in a final DMSO concentration of 0.11%. Cells were incubated for 1 h at […]/5% CO2/95% humidity. The supernatant was removed, the cells were lysed in 20 ul of lysis buffer for AlphaScreen® SureFire® detection.
(§3) For detection of p-AKT(Ser473), the SureFire® p-Akt 1/2 (Ser473) Assay Kit (PerkinElmer, U.S.A.) was used. 5 ul of cell lysate was transferred to 384-well low volume Proxiplates for detection using a 384-well pipettor. Addition of AlphaScreen® SureFire® reagents was done according to the manufacturer's protocol. First, 5 ul of reaction buffer plus activation buffer mix containing AlphaScreen® acceptor beads was added, the plate was sealed, and incubated on a plate shaker for 2 hours at room temperature. Second, 2 ul of dilution buffer containing AlphaScreen® donor beads was added, and the plate was incubated on plate shaker as above for a further 2 hours. The plate was read on an AlphaScreen® compatible plate reader, using standard AlphaScreen® settings. Alternatively, p-AKT(Ser473) was detected with the CisBio HTRF Assay Kit: As positive control, 0.9 mM of 1-(3-(trifluoromethyl)-4-(piperazin-1-yl)phenyl)-8-(6-methoxypyridin-3-yl)-3-methyl-1H-imidazo[4,5-c]quinolin-2(3H)-one maleic acid salt in 90% (v/v) DMSO was added to the compound master plate. For compound testing, the cells were seeded at a density of 4000 (Rat-1_PI3Kdelta), 8000 (Rat-1_PI3Kalpha), or 6500 (Rat-1_PI3Kbeta) cells in 30 ul complete growth medium into 384-well plates, with a plastic surface promoting the adhesion of cells and their growth (assay plates) and were grown at 37° C./5% CO2/90% humidity for 24 h. Some 10 ul of the compound predilutions from the daughter plate were then transferred to the cells. After treatment with compound for 1 h, medium was removed and cells were lysed by the addition of 20 ul lysis buffer supplemented with blocking buffer. Detection of p-AKT(Ser473) was performed with the HTRF pAKT (Ser473) assay kit according to the manufacturer's instructions using 16 ul of cell lysate in a total detection volume of 20 ul.

[2] = target: human phosphoinositide-3 kinase (PI3K) alpha (Homo sapiens (Human), UniProt P42336); test: PI3K-mediated Akt 1/2 (S473) phosphorylation in Rat-1 cells overexpressing PI3K alpha; format: cell-based, rat cells expressing human PI3K alpha; details: cellular assay, p-AKT(Ser473), read-out: Cell PI3K alpha IC50
Sequence of human phosphoinositide-3 kinase (PI3K) alpha (P42336 whole entry): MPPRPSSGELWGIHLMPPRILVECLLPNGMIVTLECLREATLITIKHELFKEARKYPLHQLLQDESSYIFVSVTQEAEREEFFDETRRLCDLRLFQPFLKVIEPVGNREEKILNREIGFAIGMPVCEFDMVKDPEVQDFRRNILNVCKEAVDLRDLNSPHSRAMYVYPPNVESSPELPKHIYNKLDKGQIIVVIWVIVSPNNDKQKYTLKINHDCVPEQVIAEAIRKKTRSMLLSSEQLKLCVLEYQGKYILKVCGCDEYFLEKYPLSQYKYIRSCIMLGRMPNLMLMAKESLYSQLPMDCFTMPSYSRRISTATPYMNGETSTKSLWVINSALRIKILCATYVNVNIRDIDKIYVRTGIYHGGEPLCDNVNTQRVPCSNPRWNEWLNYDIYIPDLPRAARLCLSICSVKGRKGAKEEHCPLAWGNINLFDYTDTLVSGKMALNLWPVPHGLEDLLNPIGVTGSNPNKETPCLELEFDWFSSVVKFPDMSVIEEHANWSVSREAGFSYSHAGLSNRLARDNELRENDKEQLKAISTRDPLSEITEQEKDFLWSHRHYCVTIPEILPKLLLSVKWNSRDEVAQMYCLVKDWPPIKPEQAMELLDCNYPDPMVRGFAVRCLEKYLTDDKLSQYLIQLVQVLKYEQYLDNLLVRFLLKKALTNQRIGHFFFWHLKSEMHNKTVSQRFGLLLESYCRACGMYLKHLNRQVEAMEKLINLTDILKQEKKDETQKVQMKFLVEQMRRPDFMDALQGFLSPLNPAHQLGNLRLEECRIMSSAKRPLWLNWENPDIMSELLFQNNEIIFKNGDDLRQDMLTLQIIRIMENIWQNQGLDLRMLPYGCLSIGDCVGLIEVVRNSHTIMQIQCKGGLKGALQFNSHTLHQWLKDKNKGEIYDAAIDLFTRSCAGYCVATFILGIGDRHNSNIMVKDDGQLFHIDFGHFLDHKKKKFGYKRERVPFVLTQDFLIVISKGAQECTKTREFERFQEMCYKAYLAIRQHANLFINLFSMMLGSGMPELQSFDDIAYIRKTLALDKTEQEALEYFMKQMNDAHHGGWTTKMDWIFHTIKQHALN
Sequence of human phosphoinositide-3 kinase (PI3K) alpha (Q63787 whole entry partner): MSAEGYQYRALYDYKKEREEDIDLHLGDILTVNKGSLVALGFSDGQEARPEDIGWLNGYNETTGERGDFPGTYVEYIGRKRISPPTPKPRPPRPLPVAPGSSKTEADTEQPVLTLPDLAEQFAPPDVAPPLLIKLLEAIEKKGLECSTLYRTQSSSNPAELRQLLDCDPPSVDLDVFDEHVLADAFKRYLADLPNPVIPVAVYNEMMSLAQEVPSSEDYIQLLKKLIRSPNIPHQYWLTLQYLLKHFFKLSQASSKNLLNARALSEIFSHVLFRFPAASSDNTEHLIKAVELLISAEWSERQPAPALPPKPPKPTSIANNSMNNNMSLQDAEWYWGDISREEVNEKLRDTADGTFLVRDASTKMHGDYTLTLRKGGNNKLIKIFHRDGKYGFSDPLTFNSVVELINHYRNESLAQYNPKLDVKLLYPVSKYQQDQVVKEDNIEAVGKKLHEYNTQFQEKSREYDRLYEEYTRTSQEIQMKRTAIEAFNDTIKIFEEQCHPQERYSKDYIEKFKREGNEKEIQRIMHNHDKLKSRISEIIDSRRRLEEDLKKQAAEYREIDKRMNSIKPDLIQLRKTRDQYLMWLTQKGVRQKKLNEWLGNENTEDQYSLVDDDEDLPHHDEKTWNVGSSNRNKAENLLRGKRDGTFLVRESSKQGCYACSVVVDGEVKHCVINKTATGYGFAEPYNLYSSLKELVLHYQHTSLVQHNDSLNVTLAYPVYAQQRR
Method: as §1, §2, §3

[3] = target: PI3K alpha (Homo sapiens (Human), UniProt P42336); test: Biochemical assay for PI3Kalpha (Kinase-Glo format); details: enzymatic assay
Sequence of PI3K alpha (P42336 21-1068): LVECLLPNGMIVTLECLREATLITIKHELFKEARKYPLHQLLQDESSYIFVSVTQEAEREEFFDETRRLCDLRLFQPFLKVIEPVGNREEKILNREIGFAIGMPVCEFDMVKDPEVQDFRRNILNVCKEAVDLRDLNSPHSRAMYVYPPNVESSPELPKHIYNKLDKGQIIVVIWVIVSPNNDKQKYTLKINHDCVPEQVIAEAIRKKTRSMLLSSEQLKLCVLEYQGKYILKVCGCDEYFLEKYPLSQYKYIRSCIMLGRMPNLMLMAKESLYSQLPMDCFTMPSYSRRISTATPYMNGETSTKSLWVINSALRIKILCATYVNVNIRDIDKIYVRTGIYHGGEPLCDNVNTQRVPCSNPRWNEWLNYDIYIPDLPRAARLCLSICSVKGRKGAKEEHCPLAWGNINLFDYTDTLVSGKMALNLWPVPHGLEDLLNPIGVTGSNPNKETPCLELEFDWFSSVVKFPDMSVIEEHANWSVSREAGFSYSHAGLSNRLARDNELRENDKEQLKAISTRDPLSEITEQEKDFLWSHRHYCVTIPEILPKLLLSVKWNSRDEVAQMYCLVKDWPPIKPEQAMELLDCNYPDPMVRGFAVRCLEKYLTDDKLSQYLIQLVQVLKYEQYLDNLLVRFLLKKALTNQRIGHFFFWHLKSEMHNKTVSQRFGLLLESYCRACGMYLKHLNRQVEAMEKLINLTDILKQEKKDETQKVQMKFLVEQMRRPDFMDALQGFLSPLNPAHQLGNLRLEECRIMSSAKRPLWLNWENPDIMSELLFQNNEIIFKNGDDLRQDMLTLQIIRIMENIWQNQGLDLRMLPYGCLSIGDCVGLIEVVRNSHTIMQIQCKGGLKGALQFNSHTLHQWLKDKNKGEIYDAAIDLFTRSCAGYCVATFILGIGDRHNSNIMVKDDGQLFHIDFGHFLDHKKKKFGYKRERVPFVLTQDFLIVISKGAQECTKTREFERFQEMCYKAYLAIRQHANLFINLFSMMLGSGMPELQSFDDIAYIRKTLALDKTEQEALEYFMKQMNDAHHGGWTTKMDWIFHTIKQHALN
Sequence of PI3K alpha (P27986 461-568 partner): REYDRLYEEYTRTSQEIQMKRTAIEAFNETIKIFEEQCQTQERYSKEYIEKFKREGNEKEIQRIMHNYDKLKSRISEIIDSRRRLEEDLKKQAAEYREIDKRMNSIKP
Method: 1.1 Generation of Gene Constructs, Protein Expression and Purification
For the enzymatic assays, the preparation of PI3K gene constructs, protein expression and purification for HTS are described in WO2012/004299.
1.2 Biochemical Assays for PI3Kalpha, PI3Kbeta (Kinase-Glo Format)
The kinase reaction is performed in a final volume of 50 μl per well of a half area COSTAR, 96 well plate. The final concentrations of ATP and phosphatidyl inositol in the assay are 5 μM and 6 μg/mL, respectively. The reaction is started by the addition of PI3 kinase, e.g. PI3 kinase α.
The components of the assay are added per well as follows: • 10 μl test compound in 5% DMSO per well in […]. • Total activity is determined by addition 10 μl of 5% vol/vol DMSO in the first 4 wells of column 1 and the last 4 wells of column 12. • The background is determined by addition of 10 μM control compound to the last 4 wells of column 1 and the first 4 wells of column 12. • 2 mL ‘Assay mix’ are prepared per plate: • 1.912 mL of HEPES assay buffer • 8.33 μl of 3 mM stock of ATP giving a final concentration of 5 μM per well • 1 μl of [^33P]ATP on the activity date giving 0.05 μCi per well • 30 μl of 1 mg/mL PI stock giving a final concentration of 6 μg/mL per well • 5 μl of 1 M stock MgCl2 giving a final concentration of 1 mM per well • 20 μl of the assay mix are added per well. • 2 mL ‘Enzyme mix’ are prepared per plate (x* μl PI3 kinase p110α in 2 mL of kinase buffer). The ‘Enzyme mix’ is kept on ice during addition to the assay plates. * The volume of enzyme is dependent on the enzymatic activity of the batch in use. • 20 μl ‘Enzyme mix’ are added/well to start the reaction. • The plate is then incubated at room temperature for 90 minutes. • The reaction is terminated by the addition of 50 μl WGA-SPA bead (wheat germ agglutinin-coated Scintillation Proximity Assay beads) suspension per well. • The assay plate is sealed using TopSeal-S (heat seal for polystyrene microplates, PerkinElmer LAS [Deutschland] GmbH, Rodgau, Germany) and incubated at room temperature for at least 60 minutes. • The assay plate is then centrifuged at 1500 rpm for 2 minutes using the Jouan bench top centrifuge (Jouan Inc., Nantes, France). • The assay plate is counted using a Packard TopCount, each well being counted for 20 seconds.
In a more preferred assay, the kinase reaction is performed in a final volume of 10 μl per well of a low volume non-binding CORNING, 384 well black plate (Cat. No. #3676). The final concentrations of ATP and phosphatidyl inositol (PI) in the assay are 1 μM and 10 μg/mL, respectively. The reaction is started by the addition of ATP.
The components of the assay are added per well as follows: […]

Sequence of human phosphoinositide-3 kinase (PI3K) delta (O00329 whole entry): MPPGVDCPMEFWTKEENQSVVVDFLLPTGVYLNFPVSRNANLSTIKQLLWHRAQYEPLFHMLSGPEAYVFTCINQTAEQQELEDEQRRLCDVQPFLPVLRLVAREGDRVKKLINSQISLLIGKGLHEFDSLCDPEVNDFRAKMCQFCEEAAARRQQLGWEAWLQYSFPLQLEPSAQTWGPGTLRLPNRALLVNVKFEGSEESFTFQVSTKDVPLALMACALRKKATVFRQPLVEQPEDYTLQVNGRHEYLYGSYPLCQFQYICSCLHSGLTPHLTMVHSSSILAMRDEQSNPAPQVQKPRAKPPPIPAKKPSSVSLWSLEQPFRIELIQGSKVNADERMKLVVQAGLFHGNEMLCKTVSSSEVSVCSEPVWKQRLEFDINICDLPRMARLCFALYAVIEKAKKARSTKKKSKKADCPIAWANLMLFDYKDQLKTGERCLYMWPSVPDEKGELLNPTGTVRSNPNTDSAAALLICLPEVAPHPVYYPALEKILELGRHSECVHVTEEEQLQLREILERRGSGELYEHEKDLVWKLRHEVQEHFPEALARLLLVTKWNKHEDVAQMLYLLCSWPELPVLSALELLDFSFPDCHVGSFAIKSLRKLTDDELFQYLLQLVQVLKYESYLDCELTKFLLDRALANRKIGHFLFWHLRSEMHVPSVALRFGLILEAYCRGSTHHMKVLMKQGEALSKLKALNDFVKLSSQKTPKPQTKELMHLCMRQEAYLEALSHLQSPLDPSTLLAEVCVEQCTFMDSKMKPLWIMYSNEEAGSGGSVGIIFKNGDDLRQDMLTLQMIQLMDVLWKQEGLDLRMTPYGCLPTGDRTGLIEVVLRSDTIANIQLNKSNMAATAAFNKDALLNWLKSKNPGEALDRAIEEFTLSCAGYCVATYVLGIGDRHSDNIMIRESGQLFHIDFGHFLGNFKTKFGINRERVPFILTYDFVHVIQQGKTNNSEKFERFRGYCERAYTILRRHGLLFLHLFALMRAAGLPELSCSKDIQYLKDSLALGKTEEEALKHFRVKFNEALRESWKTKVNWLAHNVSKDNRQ
Sequence of human phosphoinositide-3 kinase (PI3K) delta (Q63787 whole entry partner): as the sequence (Q63787 whole entry partner) above

Row | SMILES | pIC50 [1] | pIC50 [2] | pIC50 [3]
1 | COc1ncc(-c2c(F)ccc3nc([C@@H]4C[C@H](O)CN4c4nc(N)nc(C)c4C#N)n(-c4ccccc4)c(=O)c23)cn1 [Example 7, 2-Amino-4-((2S,4S)-2-(6-fluoro-5-(2-methoxypyrimidin-5-yl)-4-oxo-3-phenyl-3,4-dihydroquinazolin-2-yl)-4-hydroxypyrrolidin-1-yl)-6-methylpyrimidine-5-carbonitrile] | 8.05 | 5.33 | 6.68
2 | Cn1cnc(-c2cccc3nc([C@@H]4CCCN4c4ncnc(N)c4C#N)n(-c4ccccc4)c(=O)c23)c1 [Example 15, (S)-4-Amino-6-(2-(5-(1-methyl-1H-imidazol-4-yl)-4-oxo-3-phenyl-3,4-dihydroquinazolin-2-yl)pyrrolidin-1-yl)pyrimidine-5-carbonitrile] | 5.27 | < 5.00 | < 5.00
3 | Cc1nc(N)nc(N2C[C@@H](O)C[C@H]2c2nc3ccc(F)c(-c4cn(C)cn4)c3c(=O)n2-c2ccccc2)c1C#N [Example 31, 2-Amino-4-((2S,4S)-2-(6-fluoro-5-(1-methyl-1H-imidazol-4-yl)-4-oxo-3-phenyl-3,4-dihydroquinazolin-2-yl)-4-hydroxypyrrolidin-1-yl)-6-methylpyrimidine-5-carbonitrile] | 6.92 | < 5.00 | 6.24
4 | Cn1cc(-c2c(F)ccc3nc([C@@H]4CCCN4c4ncnc(N)c4C#N)n(-c4ccccc4)c(=O)c23)cn1 [Example 5, (S)-4-Amino-6-(2-(6-fluoro-5-(1-methyl-1H-pyrazol-4-yl)-4-oxo-3-phenyl-3,4-dihydroquinazolin-2-yl)pyrrolidin-1-yl)pyrimidine-5-carbonitrile] | 8.15 | 5.52 | 6.64
5 | COc1ncc(-c2cccc3nc([C@@H]4C[C@H](O)CN4c4nc(N)nc(C)c4C#N)n(-c4ccccc4)c(=O)c23)cn1 [Example 22, 2-Amino-4-((2S,4S)-4-hydroxy-2-(5-(2-methoxypyrimidin-5-yl)-4-oxo-3-phenyl-3,4-dihydroquinazolin-2-yl)pyrrolidin-1-yl)-6-methylpyrimidine-5-carbonitrile] | 8.15 | < 5.00 | 6.24
6 | Cc1nc(N)nc(N2C[C@@H](F)C[C@H]2c2nc3cccc(-c4cnn(C)c4)c3c(=O)n2-c2ccccc2)c1C#N [Example 30, 2-Amino-4-((2S,4S)-4-fluoro-2-(5-(1-methyl-1H-pyrazol-4-yl)-4-oxo-3-phenyl-3,4-dihydroquinazolin-2-yl)pyrrolidin-1-yl)-6-methylpyrimidine-5-carbonitrile] | > 8.00 | 5.64 | 6.35
7 | CO[C@H]1C[C@@H](c2nc3cccc(-c4cnn(C)c4)c3c(=O)n2-c2ccccc2)N(c2nc(N)nc3[nH]cnc23)C1 [Example 11, 2-((2S,4S)-1-(2-Amino-9H-purin-6-yl)-4-methoxypyrrolidin-2-yl)-5-(1-methyl-1H-pyrazol-4-yl)-3-phenylquinazolin-4(3H)-one] | 6.18 | < 5.00 | 5.64
8 | Cc1nc(N)nc(N2CCC[C@H]2c2nc3cccc(-c4cnn(C)c4)c3c(=O)n2-c2ccccc2)c1C#N [Example 13, (S)-2-Amino-4-methyl-6-(2-(5-(1-methyl-1H-pyrazol-4-yl)-4-oxo-3-phenyl-3,4-dihydroquinazolin-2-yl)pyrrolidin-1-yl)pyrimidine-5-carbonitrile] | 7.92 | 5.96 | 6.59

Other lines, results leading:

Row | pIC50 [1] | pIC50 [2] | pIC50 [3] | SMILES
9 | 8.15 | < 5.19 | 6.28 | Cc1nc(N)nc(N2C[C@@H](O)C[C@H]2c2nc3cccc(-c4cncnc4)c3c(=O)n2-c2ccccc2)c1C#N [Example 26, 2-Amino-4-((2S,4S)-4-hydroxy-2-(4-oxo-3-phenyl-5-(pyrimidin-5-yl)-3,4-dihydroquinazolin-2-yl)pyrrolidin-1-yl)-6-methylpyrimidine-5-carbonitrile]
10 | 8.40 | 5.72 | 7.32 | COc1cncc(-c2cccc3nc([C@@H]4C[C@H](O)CN4c4nc(N)nc(C)c4C#N)n(-c4ccccc4)c(=O)c23)c1 [Example 25, 2-Amino-4-((2S,4S)-4-hydroxy-2-(5-(5-methoxypyridin-3-yl)-4-oxo-3-phenyl-3,4-dihydroquinazolin-2-yl)pyrrolidin-1-yl)-6-methylpyrimidine-5-carbonitrile]
11 | 8.52 | 5.89 | 5.89 | Cn1cc(-c2cccc3nc([C@@H]4CCCN4c4ncnc(N)c4C#N)n(-c4ccccc4)c(=O)c23)cn1 [Example 2, (S)-4-Amino-6-(2-(5-(1-methyl-1H-pyrazol-4-yl)-4-oxo-3-phenyl-3,4-dihydroquinazolin-2-yl)pyrrolidin-1-yl)pyrimidine-5-carbonitrile]
12 | > 8.52 | 5.27 | 6.09 | Cc1ncc(-c2cccc3nc([C@@H]4CCCN4c4nc(N)nc(C)c4C#N)n(-c4ccccc4)c(=O)c23)cn1 [Example 19, (S)-2-Amino-4-methyl-6-(2-(5-(2-methylpyrimidin-5-yl)-4-oxo-3-phenyl-3,4-dihydroquinazolin-2-yl)pyrrolidin-1-yl)pyrimidine-5-carbonitrile]
13 | 8.22 | 5.49 | 5.96 | Cn1cc(-c2c(F)ccc3nc([C@@H]4C[C@H](O)CN4c4ncnc(N)c4C#N)n(-c4ccccc4)c(=O)c23)cn1 [Example 8, 4-Amino-6-((2S,4S)-2-(6-fluoro-5-(1-methyl-1H-pyrazol-4-yl)-4-oxo-3-phenyl-3,4-dihydroquinazolin-2-yl)-4-hydroxypyrrolidin-1-yl) pyrimidine-5-carbonitrile]
